The values that follow come from ChEMBL document CHEMBL3808384, “Synthesis of new tricyclic thiolactams as potent antitumor agent for pancreatic cancer” (Bioorg Med Chem Lett, 2016).

A word on the inhibition: it is how much of the control response was suppressed.

System in the first data set: not listed separately
Put plainly: Cytotoxicity against human PANC1 cells cultured in dulbecco's modified eagle's medium. The format is functional, PANC-1.
Details: not given
As to `Fc1ccc(Cn2c3c(c4ccccc42)CCN(Cc2ccccc2)C3=S)cc1`, the PC50 stood at 152.6 µM.
Still for that read-out and setting: in the case of `Oc1ccc(Cn2c3c(c4ccccc42)CCN(Cc2ccccc2)C3=S)cc1` it was 20 µM; in that of `COc1cc(Cn2c3c(c4ccccc42)CCN(Cc2ccccc2)C3=S)ccc1O`, 8.15 µM.

System in another data set: not listed separately
Put plainly: Antitumor activity against human MIAPaCa2 cells xenografted in BALB/cAJcl-nu/nu mouse assessed as tumor volume at 7.5 mg/kg, ip measured every fourth day (reference value: 1917.6 +/- 280.3 mm3). The format is functional, MIA PaCa-2.
Details: not given
In the case of `COc1cc(C[C@H]2C(=O)OC[C@@H]2Cc2ccc(OC)c(OC)c2)ccc1O` [ARCTIGENIN], the Activity amounted to 856.8 mm3.

System in the next data set: not listed separately
Put plainly: Antitumor activity against human MIAPaCa2 cells xenografted in BALB/cAJcl-nu/nu mouse assessed as reduction in tumor volume at 7.5 mg/kg, ip measured every fourth day relative to control.
Details: not given
The format is functional, MIA PaCa-2. Background: Xenograft models place foreign cells or tissue in a host animal.
Take `COc1cc(C[C@H]2C(=O)OC[C@@H]2Cc2ccc(OC)c(OC)c2)ccc1O` [ARCTIGENIN]: the “fold change (FC)” value is 2.2.

System in a further data set: not listed separately
Put plainly: Antitumor activity against human MIAPaCa2 cells xenografted in BALB/cAJcl-nu/nu mouse assessed as tumor volume at 8.02 mg/kg, ip measured every fourth day (reference value: 1917.6 +/- 280.3 mm3). It counts as functional, MIA PaCa-2.
Details: not given
Consider `Oc1cccc(Cn2c3c(c4ccccc42)CCN(Cc2ccccc2)C3=S)c1`, for which the Activity was 1203.9 mm3.

System in another data set: not listed separately
Put plainly: Cytotoxicity against human PANC1 cells at 30 uM cultured in nutrient-deprived medium. It counts as functional. Particulars: PANC-1.
As to `S=C1c2c(c3ccccc3n2Cc2ccccc2)CCN1Cc1ccccc1`, the inhibition at 30 µM was below 50%.
`Fc1ccc(Cn2c3c(c4ccccc42)CCN(Cc2ccccc2)C3=S)cc1` gave an inhibition at 30 µM below 50%.
Take `S=C1c2c(c3ccccc3n2Cc2ccc(Cl)cc2)CCN1Cc1ccccc1`: the inhibition at 30 µM was below 50%.
As to `COc1ccc(Cn2c3c(c4ccccc42)CCN(Cc2ccccc2)C3=S)cc1`, the inhibition at 30 µM is below 50%.

A further data set concerns Mus musculus. Put plainly: Toxicity in BALB/cAJcl-nu/nu mouse xenografted with human MIAPaCa2 cells assessed as body weight loss at 8.02 mg/kg, ip measured every fifth day. It counts as organism-based, MIA PaCa-2. Particulars: in vivo.
Regarding `Oc1cccc(Cn2c3c(c4ccccc42)CCN(Cc2ccccc2)C3=S)c1`, the Activity entry is given as “Non-toxic”.

System in another data set: not listed separately
Put plainly: Cytotoxicity against human PANC1 cells at 30 uM cultured in dulbecco's modified eagle's medium. It counts as functional. The conditions noted are these: PANC-1.
`S=C1c2c(c3ccccc3n2Cc2ccccc2)CCN1Cc1ccccc1`: the inhibition at 30 µM was below 50%.
Compound `Oc1cccc(Cn2c3c(c4ccccc42)CCN(Cc2ccccc2)C3=S)c1` came in with an inhibition at 30 µM below 50%.
The same measure, in the same setting: with `Oc1cc(O)cc(Cn2c3c(c4ccccc42)CCN(Cc2ccccc2)C3=S)c1` the figure was below 50%.
With `Oc1ccc(Cn2c3c(c4ccccc42)CCN(Cc2ccccc2)C3=S)cc1O`, the inhibition at 30 µM was below 50%.
The same measure, in the same setting: in the case of `S=C1c2c(c3ccccc3n2Cc2ccc(Cl)cc2)CCN1Cc1ccccc1` it was below 50%; in that of `COc1ccc(Cn2c3c(c4ccccc42)CCN(Cc2ccccc2)C3=S)cc1O`, below 50%; in that of `COc1ccc(Cn2c3c(c4ccccc42)CCN(Cc2ccccc2)C3=S)cc1`, below 50%.
Same read-out and setting: in the case of `Oc1ccccc1Cn1c2c(c3ccccc31)CCN(Cc1ccccc1)C2=S` it was below 50%; in that of `COc1cc(O)cc(Cn2c3c(c4ccccc42)CCN(Cc2ccccc2)C3=S)c1`, below 50%.
On the same count and under the same terms, in the case of `COc1cc(C[C@H]2C(=O)OC[C@@H]2Cc2ccc(OC)c(OC)c2)ccc1O` [ARCTIGENIN] it was below 50%.

The subject of the next data set is Mus musculus. Put plainly: Toxicity in BALB/cAJcl-nu/nu mouse xenografted with human MIAPaCa2 cells assessed as body weight loss at 7.5 mg/kg, ip measured every fifth day. Particulars: in vivo. It counts as organism-based, MIA PaCa-2.
Consider `COc1cc(C[C@H]2C(=O)OC[C@@H]2Cc2ccc(OC)c(OC)c2)ccc1O` [ARCTIGENIN], for which the Activity entry is recorded as “Non-toxic”.

System in the next data set: not listed separately
Put plainly: Cytotoxicity against human PANC1 cells cultured in nutrient-deprived medium. The format is functional, PANC-1.
Details: not given
For the compound `Oc1cccc(Cn2c3c(c4ccccc42)CCN(Cc2ccccc2)C3=S)c1`, the PC50 stood at 1.96 µM.
Still for that read-out and setting: with `O=C1c2c(c3ccccc3n2Cc2cccc(O)c2)CCN1Cc1ccccc1` the figure was 44.8 µM; with `Oc1cc(O)cc(Cn2c3c(c4ccccc42)CCN(Cc2ccccc2)C3=S)c1`, 4.81 µM.
Still for that read-out and setting: with `Oc1ccc(Cn2c3c(c4ccccc42)CCN(Cc2ccccc2)C3=S)cc1` the figure was 1.68 µM; with `Oc1ccc(Cn2c3c(c4ccccc42)CCN(Cc2ccccc2)C3=S)cc1O`, 4.56 µM.
The compound `COc1ccc(Cn2c3c(c4ccccc42)CCN(Cc2ccccc2)C3=S)cc1O` yielded a PC50 of 7.07 µM.
Same read-out and setting: with `Oc1ccccc1Cn1c2c(c3ccccc31)CCN(Cc1ccccc1)C2=S` the figure was 2.23 µM; with `Oc1cccc(Cn2ccc3ccccc32)c1`, 173.7 µM.
Compound `COc1cc(O)cc(Cn2c3c(c4ccccc42)CCN(Cc2ccccc2)C3=S)c1` had a PC50 of 4.2 µM.
Same read-out and setting: with `O=C1OCCc2c1n(Cc1cccc(O)c1)c1ccccc21` the figure was 131.7 µM; with `COc1cc(Cn2c3c(c4ccccc42)CCN(Cc2ccccc2)C3=S)ccc1O`, 2.54 µM; with `COc1cc(C[C@H]2C(=O)OC[C@@H]2Cc2ccc(OC)c(OC)c2)ccc1O` [ARCTIGENIN], 1.27 µM.

System in the next data set: not listed separately
Put plainly: Antitumor activity against human MIAPaCa2 cells xenografted in BALB/cAJcl-nu/nu mouse assessed as reduction in tumor volume at 8.02 mg/kg, ip measured every fourth day relative to control. The format is functional, MIA PaCa-2.
Details: not given
`Oc1cccc(Cn2c3c(c4ccccc42)CCN(Cc2ccccc2)C3=S)c1`: the “fold change (FC)” value was 1.6.
